The values that follow are results of earlier work, collected in publication PMC8243326, “Data-Driven Ensemble Docking to Map Molecular Interactions of Steroid Analogs with Hepatic Organic Anion Transporting Polypeptides” (Journal of Chemical Information and Modeling, 2021).

As usually defined, the IC50 is the concentration that inhibits the measured activity by half.

One data set deals with T1, OATP1B1 (Homo sapiens, UniProt Q9Y6L6).
T1 sequence (Q9Y6L6 1-691): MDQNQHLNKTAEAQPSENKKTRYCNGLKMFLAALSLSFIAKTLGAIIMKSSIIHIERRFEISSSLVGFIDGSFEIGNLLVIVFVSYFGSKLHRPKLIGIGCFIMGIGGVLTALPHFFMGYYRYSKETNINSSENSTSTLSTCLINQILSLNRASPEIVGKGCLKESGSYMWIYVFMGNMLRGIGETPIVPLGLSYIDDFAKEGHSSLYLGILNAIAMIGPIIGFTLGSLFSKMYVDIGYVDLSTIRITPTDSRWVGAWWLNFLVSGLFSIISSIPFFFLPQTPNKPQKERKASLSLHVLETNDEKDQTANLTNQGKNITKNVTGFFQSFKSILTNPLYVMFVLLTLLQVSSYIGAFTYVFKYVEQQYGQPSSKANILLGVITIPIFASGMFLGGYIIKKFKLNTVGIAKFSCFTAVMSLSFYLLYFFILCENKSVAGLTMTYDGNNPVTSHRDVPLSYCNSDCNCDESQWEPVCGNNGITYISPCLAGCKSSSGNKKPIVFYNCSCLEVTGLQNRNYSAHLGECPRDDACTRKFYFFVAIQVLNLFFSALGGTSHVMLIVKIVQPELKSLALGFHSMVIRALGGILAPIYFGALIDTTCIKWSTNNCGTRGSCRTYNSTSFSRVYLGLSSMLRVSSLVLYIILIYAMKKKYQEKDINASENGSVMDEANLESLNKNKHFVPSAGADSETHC
The following applies: cited from earlier work; for median bioactivity value: OATP1B1, public data sources.

The next data set has as its target T2, OATP1B3 (Homo sapiens, UniProt Q9NPD5).
T2 sequence (Q9NPD5 1-702): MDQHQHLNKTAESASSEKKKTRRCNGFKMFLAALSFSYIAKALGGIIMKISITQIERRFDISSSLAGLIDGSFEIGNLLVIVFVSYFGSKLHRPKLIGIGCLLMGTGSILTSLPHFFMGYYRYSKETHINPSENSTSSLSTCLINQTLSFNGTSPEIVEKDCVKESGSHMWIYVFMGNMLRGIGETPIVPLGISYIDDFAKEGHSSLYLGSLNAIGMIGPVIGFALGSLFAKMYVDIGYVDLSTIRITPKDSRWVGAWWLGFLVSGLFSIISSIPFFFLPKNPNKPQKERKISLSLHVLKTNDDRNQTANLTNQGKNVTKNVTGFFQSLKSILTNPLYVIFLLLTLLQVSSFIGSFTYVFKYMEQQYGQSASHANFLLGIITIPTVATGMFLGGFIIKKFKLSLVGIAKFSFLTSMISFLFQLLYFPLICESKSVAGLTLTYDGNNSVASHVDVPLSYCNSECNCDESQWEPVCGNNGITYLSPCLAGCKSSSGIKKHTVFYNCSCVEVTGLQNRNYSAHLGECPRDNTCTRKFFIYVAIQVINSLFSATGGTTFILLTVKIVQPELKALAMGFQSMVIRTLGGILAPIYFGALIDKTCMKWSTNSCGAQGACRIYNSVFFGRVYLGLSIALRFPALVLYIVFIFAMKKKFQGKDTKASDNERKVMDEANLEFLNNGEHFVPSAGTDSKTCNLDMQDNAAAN
Details: expressed in transfected cells; host or cells: A431 cells. The following applies: public data sources; cited from earlier work.

For a further data set, the target named is T3, OATP2B1 (Homo sapiens, UniProt O94956).
T3 sequence (O94956 1-709): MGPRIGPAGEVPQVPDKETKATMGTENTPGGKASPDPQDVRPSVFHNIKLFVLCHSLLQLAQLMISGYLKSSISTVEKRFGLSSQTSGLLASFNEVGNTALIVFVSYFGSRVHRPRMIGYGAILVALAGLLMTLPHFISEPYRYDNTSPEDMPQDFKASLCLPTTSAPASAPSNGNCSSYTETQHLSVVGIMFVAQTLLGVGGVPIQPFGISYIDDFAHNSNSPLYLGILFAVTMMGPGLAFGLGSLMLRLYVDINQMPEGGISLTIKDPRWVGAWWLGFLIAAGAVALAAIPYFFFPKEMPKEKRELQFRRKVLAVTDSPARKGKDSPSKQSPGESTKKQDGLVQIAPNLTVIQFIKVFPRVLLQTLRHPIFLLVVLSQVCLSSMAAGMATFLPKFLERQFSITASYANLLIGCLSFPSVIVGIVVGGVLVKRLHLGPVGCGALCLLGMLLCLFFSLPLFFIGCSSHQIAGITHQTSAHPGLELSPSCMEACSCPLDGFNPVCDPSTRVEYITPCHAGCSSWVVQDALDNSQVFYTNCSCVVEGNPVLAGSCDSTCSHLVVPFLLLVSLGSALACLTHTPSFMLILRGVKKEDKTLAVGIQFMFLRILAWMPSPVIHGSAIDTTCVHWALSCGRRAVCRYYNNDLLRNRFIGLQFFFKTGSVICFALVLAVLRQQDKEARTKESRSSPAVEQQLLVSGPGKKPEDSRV
More on the design: method as in earlier work. The following applies: Figure S14; public data sources; cited from earlier work.

Take `COC(=O)CC[C@@H](C)[C@H]1CC[C@H]2[C@@H]3[C@H](O)C[C@@H]4C[C@H](O)CC[C@]4(C)[C@H]3C[C@H](O)[C@]12C` [cholic acid methyl ester]: the “median bioactivity value” on OATP1B1 is 0.20 µM; on OATP1B3, 0.13 µM.
In the case of `C[C@]12CC[C@@H]3c4ccc(OS(=O)(=O)O)cc4CC[C@H]3[C@@H]1CCC2=O` [E-3-S, estrone-3-sulfate], at OATP1B1, the “median bioactivity value” was 0.450 µM. In addition, at OATP1B1 (OATP1B1 vs OATP1B3, known from literature), the “transporter selectivity (in words)” value was “OATP1B1 selective”. Also, the IC50 at OATP2B1 is 10 µM.
Take `C[C@H](CCC(=O)O)[C@H]1CC[C@H]2[C@@H]3CC[C@@H]4C[C@H](O)CC[C@]4(C)[C@H]3CC[C@]12C` [lithocholate]: the results for the “median bioactivity value” at OATP1B1 and on OATP1B3 were 0.918 µM and 6.807 µM, respectively.
